Laboratory results published in patent US10597388B2, “Pyridazinone herbicides” (FMC CORPORATION, priority 2014, dated 2020).

Key:
Assay type in all cases: in vivo
[1] = system: barnyardgrass (Echinochloa crus-galli); experiment: Test C greenhouse herbicide test, pre- and postemergence
Procedure, shortened: (§1)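 Preemergence: seeds sown in a loam soil–sand blend and sprayed with test chemicals in a non-phytotoxic solvent mixture containing surfactant. Postemergence: plants grown in peat-based medium and treated at 2 to 18 cm (1- to 4-leaf stage). After 13 to 15 d in a greenhouse, injury was visually rated 0–100 against controls.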

[2] = system: blackgrass (Alopecurus myosuroides); experiment: as above
Procedure, shortened: as §1

corn (Zea mays) = experiment: as above
Procedure, shortened: as §1

[3] = system: crabgrass, large (large crabgrass, Digitaria sanguinalis); experiment: as above
Procedure, shortened: as §1

[4] = system: foxtail, giant (giant foxtail, Setaria faberii); experiment: as above
Procedure, shortened: as §1

[5] = system: galium (catchweed bedstraw, Galium aparine); experiment: as above
Procedure, shortened: as §1

[6] = system: johnsongrass (Sorghum halepense); experiment: as above
Procedure, shortened: as §1

[7] = system: nutsedge, yellow (yellow nutsedge, Cyperus esculentus); experiment: as above
Procedure, shortened: as §1

[8] = system: ryegrass, Italian (Italian ryegrass, Lolium multiflorum); experiment: as above
Procedure, shortened: as §1

soybean (Glycine max) = experiment: as above
Procedure, shortened: as §1

[9] = system: velvetleaf (Abutilon theophrasti); experiment: as above
Procedure, shortened: as §1

[10] = system: wheat (winter wheat, Triticum aestivum); experiment: as above
Procedure, shortened: as §1

[11] = system: waterhemp_RES2 (ALS & HPPD resistant common waterhemp, Amaranthus rudis); experiment: Test E greenhouse herbicide test, postemergence
Method: At the same time, plants from these crop and weed species and also waterhemp_RES1, (ALS & Triazine resistant common waterhemp, Amaranthus rudis), and waterhemp_RES2, (ALS & HPPD resistant common waterhemp, Amaranthus rudis) were planted in pots containing Redi-Earth® planting medium (Scotts Company, 14111 Scottslawn Road, Marysville, Ohio 43041) comprising spaghnum peat moss, vermiculite, wetting agent and starter nutrients were treated with postemergence applications of test chemicals formulated in the same manner. Plants ranged in height from 2 to 18 cm for postemergence treatments (1- to 4-leaf stage). Treated plants and controls were maintained in a greenhouse for 14 to 21 d, after which time all species were compared to controls and visually evaluated. Plant response ratings, summarized in Table E, are based on a scale of 0 to 100 where 0 is no effect and 100 is complete control. A dash (-) response means no test result.

[12] = Postemergence, 31 g ai/ha, 0 to 100 scale (0 no effect, 100 complete control)
[13] = Postemergence, 125 g ai/ha, scale 0 to 100, 0 is no effect, 100 is complete control
[14] = Postemergence, 250 g ai/ha, scale 0 to 100, 0 no effect, 100 complete control, 13 to 15 d
[15] = Preemergence, 31 g ai/ha, scale 0 to 100, 0 is no effect, 100 is complete control
[16] = Preemergence, 62 g ai/ha, scale 0 to 100, 0 is no effect, 100 is complete control
[17] = Preemergence, 125 g ai/ha, scale 0 to 100, 0 is no effect, 100 is complete control
[18] = Preemergence, 250 g ai/ha, scale 0 to 100, 0 no effect, 100 complete control
[19] = postemergence, 62 g ai/ha, scale 0 to 100, 0 no effect, 100 complete control

## Cc1cc(C)c2sc(C)c(-c3c(O)c(C)nn(C)c3=O)c2c1 [Compound 2, 5-hydroxy-2,6-dimethyl-4-(2,5,7-trimethylbenzo[b]thien-3-yl)-3(2H)-pyridazinone]
[1]; [12]
  Barnyardgrass plant response rating: 10
[1]; [13]
  Plant response rating, Barnyardgrass: 15
[1]; [14]
  Plant response rating, Barnyardgrass: 20
[1]; [15]
  Plant response rating, Barnyardgrass: 35
[1]; [16]
  Plant response rating, Barnyardgrass: 70
[1]; [17]
  Plant response rating, Barnyardgrass: 95
[1]; [18]
  Barnyardgrass plant response rating: 98
[1]; [19]
  Barnyardgrass plant response rating: 10
[2]; [12]
  Blackgrass plant response rating: 45
[2]; [13]
  Plant response rating, Blackgrass: 85
[2]; [14]
  Plant response rating, Blackgrass: 80
[2]; [15]
  Plant response rating, Blackgrass: 85
[2]; [16]
  Plant response rating, Blackgrass: 90
[2]; [17]
  Plant response rating, Blackgrass: 95
[2]; [18]
  Blackgrass plant response rating: 95
[2]; [19]
  Blackgrass plant response rating: 65
Corn (Zea mays); [12]
  Corn plant response rating: 0
Corn (Zea mays); [13]
  Plant response rating, Corn: 5
Corn (Zea mays); [14]
  Plant response rating, Corn: 10
Corn (Zea mays); [15]
  Plant response rating, Corn: 0
Corn (Zea mays); [16]
  Plant response rating, Corn: 0
Corn (Zea mays); [17]
  Plant response rating, Corn: 0
Corn (Zea mays); [18]
  Corn plant response rating: 10
Corn (Zea mays); [19]
  Corn plant response rating: 5
[3]; [12]
  Crabgrass, Large plant response rating: 10
[3]; [13]
  Plant response rating, Crabgrass, Large: 15
[3]; [14]
  Plant response rating, Crabgrass, Large: 10
[3]; [15]
  Plant response rating, Crabgrass, Large: 55
[3]; [16]
  Plant response rating, Crabgrass, Large: 55
[3]; [17]
  Plant response rating, Crabgrass, Large: 98
[3]; [18]
  Crabgrass, Large plant response rating: 95
[3]; [19]
  Crabgrass, Large plant response rating: 15
[4]; [12]
  Foxtail, Giant plant response rating: 20
[4]; [13]
  Plant response rating, Foxtail, Giant: 90
[4]; [14]
  Plant response rating, Foxtail, Giant: 95
[4]; [15]
  Plant response rating, Foxtail, Giant: 80
[4]; [16]
  Plant response rating, Foxtail, Giant: 100
[4]; [17]
  Plant response rating, Foxtail, Giant: 98
[4]; [18]
  Foxtail, Giant plant response rating: 100
[4]; [19]
  Foxtail, Giant plant response rating: 65
[5]; [12]
  Galium plant response rating: 95
[5]; [13]
  Plant response rating, Galium: 98
[5]; [14]
  Plant response rating, Galium: 98
[5]; [15]
  Plant response rating, Galium: 95
[5]; [16]
  Plant response rating, Galium: 100
[5]; [17]
  Plant response rating, Galium: 100
[5]; [18]
  Galium plant response rating: 100
[5]; [19]
  Galium plant response rating: 95
[6]; [12]
  Johnsongrass plant response rating: 5
[6]; [13]
  Plant response rating, Johnsongrass: 5
[6]; [14]
  Plant response rating, Johnsongrass: 5
[6]; [15]
  Plant response rating, Johnsongrass: 0
[6]; [16]
  Plant response rating, Johnsongrass: 0
[6]; [17]
  Plant response rating, Johnsongrass: 5
[6]; [18]
  Johnsongrass plant response rating: 5
[6]; [19]
  Johnsongrass plant response rating: 5
[7]; [12]
  Nutsedge, Yellow plant response rating: 80
[7]; [13]
  Plant response rating, Nutsedge, Yellow: 98
[7]; [14]
  Plant response rating, Nutsedge, Yellow: 98
[7]; [15]
  Plant response rating, Nutsedge, Yellow: 30
[7]; [16]
  Plant response rating, Nutsedge, Yellow: 45
[7]; [17]
  Plant response rating, Nutsedge, Yellow: 70
[7]; [18]
  Nutsedge, Yellow plant response rating: 95
[7]; [19]
  Nutsedge, Yellow plant response rating: 95
[8]; [12]
  Ryegrass, Italian plant response rating: 60
[8]; [13]
  Plant response rating, Ryegrass, Italian: 85
[8]; [14]
  Plant response rating, Ryegrass, Italian: 90
[8]; [15]
  Plant response rating, Ryegrass, Italian: 95
[8]; [16]
  Plant response rating, Ryegrass, Italian: 98
[8]; [17]
  Plant response rating, Ryegrass, Italian: 98
[8]; [18]
  Ryegrass, Italian plant response rating: 98
[8]; [19]
  Ryegrass, Italian plant response rating: 75
Soybean (Glycine max); [12]
  Soybean plant response rating: 0
Soybean (Glycine max); [13]
  Plant response rating, Soybean: 50
Soybean (Glycine max); [14]
  Plant response rating, Soybean: 5
Soybean (Glycine max); [16]
  Plant response rating, Soybean: 0
Soybean (Glycine max); [17]
  Plant response rating, Soybean: 0
Soybean (Glycine max); [18]
  Soybean plant response rating: 0
Soybean (Glycine max); [19]
  Soybean plant response rating: 0
[9]; [12]
  Velvetleaf plant response rating: 100
[9]; [13]
  Plant response rating, Velvetleaf: 100
[9]; [14]
  Plant response rating, Velvetleaf: 100
[9]; [16]
  Plant response rating, Velvetleaf: 95
[9]; [17]
  Plant response rating, Velvetleaf: 100
[9]; [18]
  Velvetleaf plant response rating: 100
[9]; [19]
  Velvetleaf plant response rating: 100
[10]; [12]
  Wheat plant response rating: 0
[10]; [13]
  Plant response rating, Wheat: 5
[10]; [14]
  Plant response rating, Wheat: 5
[10]; [16]
  Plant response rating, Wheat: 0
[10]; [17]
  Plant response rating, Wheat: 0
[10]; [18]
  Wheat plant response rating: 10
[10]; [19]
  Wheat plant response rating: 0
[11]; 16 g ai/ha, visual, scale 0 no effect to 100 complete control
  Plant response rating, Waterhemp_RES2: 0
[11]; 31 g ai/ha, visual, scale 0 no effect to 100 complete control
  Plant response rating, Waterhemp_RES2: 0
[11]; 62 g ai/ha, scale 0 to 100 (0 no effect, 100 complete control)
  Plant response rating, Waterhemp_RES2: 5
[11]; 125 g ai/ha, scale 0 to 100 (0 no effect, 100 complete control)
  Plant response rating, Waterhemp_RES2: 5
[11]; 250 g ai/ha, scale 0 to 100 (0 no effect, 100 complete control)
  Plant response rating, Waterhemp_RES2: 60
